Measurements: US9834563B2 (Merck Sharp & Dohme Corp., priority 2013, dated 2017)

Columns and labels:
Human GPR40 [1] = target: T1, Human GPR40 (Homo sapiens, UniProt O14842); assay: Inositol phosphate turnover (IP1) assay in HEK cells stably expressing human GPR40; type: cell-based; set-up: expressed in transfected cells; details: HEK cells stably expressing human GPR40, 3H-inositol labeling, 60 min compound incubation
Procedure: (§1) Human and mouse GPR40 stable cell-lines were generated in CHO cells stably expressing NFAT BLA (Beta-lactamase). A human GPR40 stable cell-line was generated in HEK cells stably expressing the aequorin expressing reporter. The expression plasmids were transfected using lipofectamine, LIFE TECHNOLOGIES (Carlsbad, Calif.), following manufacturer's instructions. Stable cell-lines were generated following drug selection.
The assay is performed in a 96-well format. HEK cells stably expressing human GPR40 are plated to be 60-80% confluent within 72 h. After 72 h, the plates are aspirated and the cells washed with inositol-free DMEM (ICN). The wash media is replaced with 150 μL of 3H-inositol labeling media (inositol-free media containing 0.4% human albumin or 0.4% mouse albumin, 1× pen/strep antibiotics, glutamine, 25 mM HEPES to which is added 3H-myo-inositol NEN #NET114A 1 mCi/mL, 25 Ci/mmol diluted 1:150 in loading media with a final specific radioactivity of 1 μCi/150 μL). Alternatively, the human and mouse albumin can be added after the overnight labeling step before the addition of LiCl.
The assay is typically run the next day after 18 h labeling. On the day of the assay, 5 μL of 300 mM LiCl is added to all wells and incubated at 37 degrees for 20 min. 0.75 μL of 200× compounds are added and incubated with the cells for 60 min at 37 degrees. The media is then aspirated off and the assay terminated with the addition of 60 μL 10 mM formic acid. The cells are lysed for 60 min at room temperature. 15-30 μL of lysate is mixed with 70 μL/1 mg YSi SPA beads AMERSHAM (United Kingdom) in clear bottom Isoplates. The plates are shaken for 2 h at room temperature. Beads are allowed to settle and the plates are counted in the Wallac MICROBETA instrument. The activities of the compounds in the examples have EC50 (effective concentration of compound to afford 50% of the maximum observed […]) values listed in Table I.

Human GPR40 [2] = target: T1, Human GPR40; assay: FLIPR assay: agonist-induced calcium mobilization in GPR40/CHO NFAT BLA cells; type: cell-based; set-up: expressed in transfected cells; host or cells: CHO cells stably expressing NFAT BLA (beta-lactamase)
Excerpt: as §1
FLIPR (Fluorimetric Imaging Plate Reader, Molecular Devices) assays were performed to measure agonist-induced calcium mobilization of the stable clones. For the FLIPR assay, one day before assay, GPR40/CHO NFAT BLA cells were seeded into black-wall-clear-bottom 384-well plates (Costar) at 1.4×10e4 cells/20 μL medium/well. The cells were incubated with 20 μl/well of the assay buffer (HBSS, 0.1% BSA, 20 mM HEPES, 2.5 mM probenecid, pH 7.4) containing 8 μM fluo-4, AM, 0.08% pluronic acid at room temperature for 100 minutes. Fluorescence output was measured using FLIPR. Compounds were dissolved in DMSO and diluted to desired concentrations with assay buffer. 13.3 μL/well of compound solution was added. The activities of the compounds in the examples have EC50 (effective concentration of compound to afford 50% of the maximum observed fluorescence) values listed in Table I.

T1 sequence (O14842 whole entry): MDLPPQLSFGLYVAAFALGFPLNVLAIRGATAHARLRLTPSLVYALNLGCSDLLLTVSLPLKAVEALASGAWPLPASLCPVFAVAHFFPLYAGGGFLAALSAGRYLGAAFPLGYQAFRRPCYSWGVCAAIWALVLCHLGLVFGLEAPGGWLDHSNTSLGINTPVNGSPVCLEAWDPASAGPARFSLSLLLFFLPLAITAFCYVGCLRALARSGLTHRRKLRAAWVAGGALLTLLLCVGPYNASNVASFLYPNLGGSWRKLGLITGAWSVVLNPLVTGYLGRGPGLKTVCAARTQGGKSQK

| SMILES | EC50 (Human GPR40 [1]) | EC50 (Human GPR40 [2]) |
| --- | --- | --- |
| Cc1nc(OCCCS(C)(=O)=O)ccc1-c1ccc(F)c(COc2ccc3c(c2)C[C@H]2[C@H](C(=O)O)[C@@H]32)c1F [Example 20, 4-(2,6-Difluoro-3-[6-(3-methanesulfonyl-propoxy)-2-methyl-pyridin-3-yl]-benzyloxy)-1,1a,6,6a-tetrahydro-cyclopropa[a]indene-1-carboxylic acid] | 0.0515 µM | 0.179 µM |
| Cc1ccc(COc2ccc3c(c2)C[C@H]2[C@H](C(=O)O)[C@@H]32)cc1-c1cnc2c(ccn2CCCS(C)(=O)=O)c1 [Example 23, (1S,1aS,6aR)-4-((4-methyl-3-(1-(3-(methylsulfonyl)propyl)-1H-pyrrolo[2,3-b]pyridin-5-yl)benzyl)oxy)-1,1a,6,6a-tetrahydrocyclopropa[a]indene-1-carboxylic acid] | 0.0845 µM | 0.0742 µM |
| O=C(O)[C@H]1[C@@H]2Cc3cc(OCc4cc(-c5cnc6[nH]ccc6c5)ccc4F)ccc3[C@@H]21 [Example 24, (1S,1aS,6aR)-4-((2-fluoro-5-(1H-pyrrolo[2,3-b]pyridin-5-yl)benzyl)oxy)-1,1a,6,6a-tetrahydrocyclopropa[a]indene-1-carboxylic acid] | 0.304 µM | 0.0733 µM |
| Cc1nc(OC[C@@H]2CCCC[C@H]2S(C)(=O)=O)ccc1-c1ccc(F)c(COc2ccc3c(c2)C[C@H]2[C@H](C(=O)O)[C@@H]32)c1 [Example 25, (1S,1aS,6aR)-4-((2-fluoro-5-(2-methyl-6-(((1S,2R)-2-(methylsulfonyl)cyclohexyl)methoxy)pyridin-3-yl)benzyl)oxy)-1,1a,6,6a-tetrahydrocyclopropa[a]indene-1-carboxylic acid] | 0.039 µM | 0.0679 µM |
| Cc1nc(OCCCCn2nccn2)ccc1-c1ccc(F)c(COc2ccc3c(c2)CC2C(C(=O)O)C32)c1 (centres unmarked) [Example 29, 4-((5-(6-(4-(2H-1,2,3-triazol-2-yl)butoxy)-2-methyl-pyridin-3-yl)-2-fluorobenzyl)oxy)-1,1a,6,6a-tetrahydrocyclo-propa[a]indene-1-carboxylic acid] | 0.0265 µM | 0.0161 µM |
| Cc1cc(OCCC2(O)COC2)ncc1-c1ccc(F)c(COc2ccc3c(c2)C[C@H]2[C@H](C(=O)O)[C@@H]32)c1 [Example 30, (1S,1aS,6aR)-4-((2-fluoro-5-(6-(2-(3-hydroxyoxetan-3-yl)ethoxy)-4-methylpyridin-3-yl)benzyl)oxy)-1,1a,6,6a-tetrahydro-cyclopropa[a]indene-1-carboxylic acid] | 0.03 µM | 0.0492 µM |
| Cc1nc(OCCCOCc2ccccc2)ccc1-c1ccc(F)c(COc2ccc3c(c2)C[C@H]2[C@H](C(=O)O)[C@@H]32)c1 [Example 34, (1S,1aS,6aR)-4-((5-(6-(3-(benzyloxy)propoxy)-2-methylpyridin-3-yl)-2-fluorobenzyl)oxy)-1,1a,6,6a-tetrahydrocyclo-propa[a]indene-1-carboxylic acid] | 0.889 µM | 0.0751 µM |
| Cc1nc(OC2CCS(=O)(=O)CC2)ccc1-c1ccc(F)c(C(C)Oc2ccc3c(c2)C[C@H]2[C@H](C(=O)O)[C@@H]32)c1 (stereo partly drawn) [Example 35, (1S,1aS,6aR)-4-(1-(5-(6-((1,1-dioxidotetrahydro-2H-thiopyran-4-yl)oxy)-2-methyl-pyridin-3-yl)-2-fluorophenyl)ethoxy)-1,1a,6,6a-tetrahydrocyclo-propa[a]indene-1-carboxylic acid] | 1.39 µM | 0.0778 µM |
| Cc1nc(OC2CCC(C(C)(C)O)CC2)ccc1-c1ccc(F)c(COc2ccc3c(c2)C[C@H]2[C@H](C(=O)O)[C@@H]32)c1 (stereo partly drawn) [Example 38, (1S,1aS,6aR)-4-((2-fluoro-5-(6-((4-(2-hydroxypropan-2-yl)cyclohexyl)oxy)-2-methylpyridin-3-yl)benzyl)oxy)-1,1a,6,6a-tetrahydro-cyclopropa[a]indene-1-carboxylic acid] | 0.0808 µM | 0.0741 µM |
| Cc1nc(N2[C@@H]3CC[C@H]2CC(O)C3)ccc1-c1ccc(F)c(COc2ccc3c(c2)C[C@H]2[C@H](C(=O)O)[C@@H]32)c1 (stereo partly drawn) [Example 39, (1S,1aS,6aR)-4-((2-fluoro-5-(6-((1R,5S)-3-hydroxy-8-azabicyclo[3.2.1]octan-8-yl)-2-methylpyridin-3-yl)benzyl)oxy)-1,1a,6,6a-tetrahydrocyclopropa[a]indene-1-carboxylic acid] | 0.026 µM | 0.0476 µM |
| Cc1nc(N2CCC3(C=Cc4ccccc43)CC2)ccc1-c1ccc(F)c(COc2ccc3c(c2)C[C@H]2[C@H](C(=O)O)[C@@H]32)c1 [Example 40] | 0.519 µM | 0.032 µM |
| Cc1nc(N2CCC(O)CC2)ccc1-c1ccc(F)c(COc2ccc3c(c2)C[C@H]2[C@H](C(=O)O)[C@@H]32)c1 [Example 41, (1S,1aS,6aR)-4-((2-fluoro-5-(6-(4-hydroxypiperidin-1-yl)-2-methylpyridin-3-yl)benzyl)oxy)-1,1a,6,6a-tetrahydrocyclopropa[a]indene-1-carboxylic acid] | 0.006 µM | 0.0224 µM |

The remaining compounds from weak to strong by EC50 (Human GPR40 [1]), led by results:

| EC50 (Human GPR40 [1]) | EC50 (Human GPR40 [2]) | SMILES |
| --- | --- | --- |
| 0.0255 µM | 0.0838 µM | Cc1nc(OCC2(O)CCCCC2O)ccc1-c1ccc(F)c(COc2ccc3c(c2)C[C@H]2[C@H](C(=O)O)[C@@H]32)c1 (stereo partly drawn) [Example 26, (1S,1aS,6aR)-4-((5-(6-((1,2-dihydroxycyclohexyl)methoxy)-2-methylpyridin-3-yl)-2-fluorobenzyl)oxy)-1,1a,6,6a-tetrahydrocyclopropa[a]indene-1-carboxylic acid] |
| 0.0205 µM | 0.0199 µM | Cc1nc(OCCCN2CCCC2=O)ccc1-c1ccc(F)c(COc2ccc3c(c2)C[C@H]2[C@H](C(=O)O)[C@@H]32)c1 [Example 36, (1S,1aS,6aR)-4-((2-fluoro-5-(2-methyl-6-(3-(2-oxopyrrolidin-1-yl)propoxy)pyridin-3-yl)benzyl)oxy)-1,1a,6,6a-tetrahydrocyclo-propa[a]indene-1-carboxylic acid] |
| 0.0147 µM | 0.0166 µM | Cc1nc(OCCCC2(O)CC2)ccc1-c1ccc(F)c(COc2ccc3c(c2)C[C@H]2[C@H](C(=O)O)[C@@H]32)c1 [Example 37, (1S,1aS,6aR)-4-((2-fluoro-5-(6-(3-(1-hydroxycyclopropyl)propoxy)-2-methylpyridin-3-yl)benzyl)oxy)-1,1a,6,6a-tetrahydrocyclopropa[a]indene-1-carboxylic acid] |
| 0.014 µM | 0.0309 µM | Cc1nc(O[C@@H]2CO[C@H]3[C@@H]2OC[C@@H]3O)ccc1-c1ccc(F)c(COc2ccc3c(c2)C[C@H]2[C@H](C(=O)O)[C@@H]32)c1 [Example 31, (1S,1aS,6aR)-4-((2-fluoro-5-(6-(((3R,3aR,6S,6aR)-6-hydroxyhexahydrofuro[3,2-b]furan-3-yl)oxy)-2-methylpyridin-3-yl)benzyl)oxy)-1,1a,6,6a-tetrahydrocyclopropa[a]indene-1-carboxylic acid] |
| 0.01 µM | 0.0489 µM | Cc1nc(OCC2CCC[C@H](O)[C@@H]2O)ccc1-c1ccc(F)c(COc2ccc3c(c2)C[C@H]2[C@H](C(=O)O)[C@@H]32)c1 (stereo partly drawn) [Example 27, (1S,1aS,6aR)-4-((5-(6-(((2R,3S)-2,3-dihydroxycyclohexyl)methoxy)-2-methylpyridin-3-yl)-2-fluorobenzyl)oxy)-1,1a,6,6a-tetrahydrocyclopropa[a]indene-1-carboxylic acid] |
| 0.008 µM | 0.0185 µM | Cc1nc(OCC2CCOCC2)ccc1-c1ccc(F)c(COc2ccc3c(c2)C[C@H]2[C@H](C(=O)O)[C@@H]32)c1 [Example 28, (1S,1aS,6aR)-4-((2-fluoro-5-(2-methyl-6-((tetrahydro-2H-pyran-4-yl)methoxy)pyridin-3-yl)benzyl)oxy)-1,1a,6,6a-tetrahydrocyclopropa[a]indene-1-carboxylic acid] |
| 0.005 µM | 0.0206 µM | CS(=O)(=O)CCCOc1cc(C(F)(F)F)c(-c2ccc(F)c(COc3ccc4c(c3)C[C@H]3[C@H](C(=O)O)[C@@H]43)c2)cn1 [Example 32, (1S,1aS,6aR)-4-((2-fluoro-5-(6-(3-(methylsulfonyl)propoxy)-4-(trifluoromethyl)pyridin-3-yl)benzyl)oxy)-1,1a,6,6a-tetrahydrocyclopropa[a]indene-1-carboxylic acid] |
